Measured values reported in US20190262355A1, “COMBINATION OF A BRD4 INHIBITOR AND AN ANTIFOLATE FOR THE THERAPY OF CANCER” (CeMM-Forschungszentrum für Molekulare Medizin GmbH, priority 2016, published 2019).

Tests used:
BRD4 = assay: REDS reporter cell line, RFP expression (Redness) on BRD4 inhibition; assay type: cell-based, human
From the text: Live cell imaging pictures were taken from cells seeded on clear flat bottom 96-well or 384-well plates (Corning), with the Operetta High Content Screening System (PerkinElmer), 20× objective and non-confocal mode. RFP quantification was done using the basic PerkinElmer software for nuclei detection and analysis, adapted for the nucleus diameter range of the specific cell line used (KBM7, 13 μm). Only RFP positive nuclei were detected and counted.
(§1) The prerequisite for effective GT genetic screens is a haploid system where monoallelic disruptive GT integration results in gene knock-out (KO). Therefore, KBM7 cells, a chronic myeloid leukemia cell line with near haploid karyotype, were chosen for the generation of the BRD4 reporter cell lines as previously described^15. […] Propidium iodide (PI) incorporation and FACS analysis were used to assay the cell cycle profile of several REDS clones in order to select a haploid clone suitable for GT-based genetic screen.
The suitability of the REDS1 clone for a GT-based genetic screen was then further validated.

WT-KBM7 cells = assay: Cell cycle profile by PI staining and FACS (diploidization); assay type: cell-based, human; conditions: treated overnight during one week, PI incorporation and FACS (FIG. 6D)
Protocol: For cell cycle analysis, 1 million cells were fixed with 70% ethanol for 24 hours, washed with PBS/1% BSA/0.1% Tween and incubated with RNase for 30 minutes. Nuclei were stained with 5 μg/ml PI (propidium iodide, Sigma) for 10 minutes prior to FACS analysis (BD FACSCalibur Flow Cytometer).
as §1, with “screen. […] REDS1 was the only clonal cell line with haploid karyotype (see FIG. 6B), also confirmed by metaphase spreads (see FIG. 6C).” for “screen.”

BRD4-MTHFD1 interaction = target: T1, BRD4-MTHFD1 interaction (Homo sapiens, UniProt O60885+P11586); assay: MTHFD1 pull-down on HAP1 whole cell lysates (BRD4-MTHFD1 interaction); assay type: binding; conditions: HAP1 whole cell lysates treated with 50 μM (FIG. 9I)
T1 construct: MTHFD1 pull-down performed on HAP1 whole cell lysates treated with 50 μM (S)-JQ1, MTX; endogenous in cells; host or cells: HAP1
T1 sequence (P11586 whole entry, other chains not shown): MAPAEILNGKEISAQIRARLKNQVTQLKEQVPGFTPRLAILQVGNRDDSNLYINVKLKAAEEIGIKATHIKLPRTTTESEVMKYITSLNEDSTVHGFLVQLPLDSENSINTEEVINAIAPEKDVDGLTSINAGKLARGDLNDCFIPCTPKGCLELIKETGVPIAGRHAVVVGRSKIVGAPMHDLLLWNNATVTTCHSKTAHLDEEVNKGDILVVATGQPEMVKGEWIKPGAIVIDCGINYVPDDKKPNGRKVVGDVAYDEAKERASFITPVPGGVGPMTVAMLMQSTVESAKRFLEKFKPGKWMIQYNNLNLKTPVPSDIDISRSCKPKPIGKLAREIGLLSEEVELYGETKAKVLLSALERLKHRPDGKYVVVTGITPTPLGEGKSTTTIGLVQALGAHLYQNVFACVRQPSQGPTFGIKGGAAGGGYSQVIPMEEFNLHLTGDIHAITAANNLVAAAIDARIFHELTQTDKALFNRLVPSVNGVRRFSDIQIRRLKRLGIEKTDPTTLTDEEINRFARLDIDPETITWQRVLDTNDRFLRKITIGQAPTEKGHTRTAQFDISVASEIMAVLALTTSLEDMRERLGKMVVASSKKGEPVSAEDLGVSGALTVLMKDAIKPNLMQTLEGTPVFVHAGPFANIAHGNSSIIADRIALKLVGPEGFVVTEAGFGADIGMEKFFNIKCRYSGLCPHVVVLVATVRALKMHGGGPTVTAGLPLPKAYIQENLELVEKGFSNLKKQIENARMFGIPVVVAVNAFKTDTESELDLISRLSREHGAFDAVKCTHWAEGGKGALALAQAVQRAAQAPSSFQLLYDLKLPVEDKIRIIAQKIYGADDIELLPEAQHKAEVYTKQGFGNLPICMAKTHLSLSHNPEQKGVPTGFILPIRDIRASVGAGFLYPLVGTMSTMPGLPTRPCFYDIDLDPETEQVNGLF
Protocol: For immunoprecipitation, 1 mg of protein extract was incubated overnight at 4° C. with 10 μl of Dynabeads (either A or G, Life technology) preincubated for 2 hours at 4° C. with 1 μg of BRD4 (ab128874, Abcam), MTHFD1 (A8, Santa Cruz) or GFP (G10362, Life Technology) antibodies.

[1] = tested on: panel of six cell lines (four not sensitive to BRD4 inhibition, plus KBM7 and HAP1); assay: Cell viability of cancer cell lines, single agents and combination; assay type: cell-based, human; conditions: NOMO-1 the most sensitive to MTX (FIG. 13A, 13B)
Protocol: HEK293T (human embryonic kidney) and HELA (cervix adenocarcinoma) cell lines were cultured in Dulbecco's Modified Eagles Medium (DMEM, Gibco) supplemented with 10% FBS. […] All the mentioned cell lines were incubated in 5% CO2 atmosphere at 37° C.

A549 cells = assay: Cell viability of A549 cells after MTHFD1 knock-down; assay type: cell-based; conditions: 72 hours (S)-JQ1 (FIG. 21A)
Protocol: KBM7 (human chronic myelogenous leukemia cell lines), MV4-11 (biphenotypic B myelomonocytic leukemia), MEG-01 (human chronic myelogenous leukemia), K-562 (human chronic myelogenous leukemia) and HAP1 (KBM7-derived) cell lines were cultured in Iscove's Modified Dulbecco's Medium (IMDM, Gibco), supplemented with 10% Fetal Bovine Serum (FBS; Gibco). HEK293T (human embryonic kidney) and HELA (cervix adenocarcinoma) cell lines were cultured in Dulbecco's Modified Eagles Medium (DMEM, Gibco) supplemented with 10% FBS. MOLM-13 (human acute monocytic leukemia), NOMO-1 (human acute monocytic leukemia) and A549 (lung carcinoma) cell lines were cultured in RPMI-1640 (Roswell Park Memorial Institute, Gibco) supplemented with 10% FBS. All the mentioned cell lines were incubated in 5% CO2 atmosphere at 37° C.

A549 xenograft = A549 xenograft mouse model; assay type: in vivo; conditions: NOD SCID gamma mice; 30 mg/kg (S)-JQ1 i.p. five times per week and/or 25 mg/kg MTX i.p. twice weekly from day 19 to day 43 (FIG. 21B-D)
Protocol: Mouse xenograft studies were performed as described previously^35. 2×10^6 A549 cells, diluted 1:1 in matrigel, were transplanted subcutaneously into NOD SCID gamma mice. Treatment (30 mg/kg (S)-JQ1 by intraperitoneal injection five times per week, and 25 mg/kg MTX per intraperitoneal injection twice weekly) was started when tumors were established, 19 days post transplantation. Tumor volumes were evaluated twice a week by measuring two perpendicular diameters with calipers. Tumor volume was calculated using the following equation: (width*width*length)/2. Treatment was performed according to an animal licence protocol approved by the Bundesministerium für Wissenschaft and Forschung (BMWF-66.009/0280-II/3b/2012). At day 43 mice were sacrificed and tumors excised and weighted.

chromatin-bound BRD4 = target: T2, chromatin-bound BRD4 (Homo sapiens, UniProt O60885); assay: Western blot of chromatin associated proteins: BRD4; assay type: cell-based; conditions: HAP1 cells, MTX 1 μM, 2 or 24 hours (FIG. 2C)
T2 construct: Western Blot assay performed on chromatin associated protein samples extracted from HAP1 cells treated with the indicated compounds; endogenous in cells; host or cells: HAP1
Protocol: Cell fractionation and chromatin enrichment was carried out as previously described^29 with some adaptations. Briefly, for 100 million cells, the chromatin enriched pellet was taken up in 250 μl benzonase digestion buffer (15 mM HEPES, 1 mM EDTA, 1 mM EGTA, 0.1% NP40, protease inhibitor cocktail (cOmplete, Roche)) after washing, and sonicated for 120 seconds on the Covaris S220 focused-ultrasonicator with the following settings: Peak Power 140; Duty-Factor 10.0; Cycles/Burst 200. After addition of 0.25 U benzonase and 2.5 μg RNase, the chromatin was incubated for 40 minutes at 4° C. on a rotary shaker. 2× SDS lysis buffer (100 mM HEPES, 4% SDS, 2 mM PMSF and protease inhibitor cocktail (cOmplete, Roche)) was added to the samples in a 1:1 ratio and incubated for 10 minutes at room temperature followed by 5 minutes denaturation at 99° C. After centrifugation at 16,000 g for 10 minutes at room temperature, the supernatant was transferred to a new tube.

[2] = tested on: MTHFD1 nuclear localization; assay: Nuclear vs cytosol fractionation Western blot in HAP1 cells; assay type: cell-based, human; conditions: MTX 1 μM, 24 hours (FIG. 2D)
Protocol: For Western Blot, proteins were separated on polyacrylamide gels with SDS running buffer (50 mM Tris, 380 mM Glycine, 7 mM SDS) and transferred to nitrocellulose blotting membranes. All membranes were blocked with blocking buffer (5% (m/v) milk powder (BioRad) in TBST (Tris-Buffered Saline with Tween: 50 mM Tris (tris (hydroxymethyl)aminomethane), 150 mM NaCl, 0.05% (v/v) Tween 20, adjusted to pH 7.6). Proteins were probed with antibodies against BRD4 (ab128874, 1:1000, Abcam), Actin (ab16039, 1:1000, Abcam), MTHFD1 (ab70203, Abcam; H120, Santa Cruz; A8, Santa Cruz; all used at 1:1000), GFP (G10362, 1:1000, Life Technology), RCC1 (C-20, 1:1000, Santa Cruz), β-Tubulin (T-4026, 1:1000, Sigma), SHMT1 (ab186130, 1:1000, Abcam) and H2B (ab156197, 1:1000, Abcam) and detected by HRP (horseradish peroxidase) conjugated donkey anti-rabbit IgG antibody (ab16284, 1:5000, Abcam) or donkey anti-mouse IgG antibody (Pierce) and visualized with the Pierce ECL Western Blotting substrate (Amersham), according to the provided protocol.

nuclear folate pool = assay: Folate metabolites in nuclear and cytosolic fractions of HAP1 cells (LC-MS/MS); assay type: cell-based, human; conditions: 6 hours, MTX and (S)-JQ1 1 μM, dBET6 0.5 μM (FIG. 19B)
Protocol: In order to quantify folates in the nuclear and cytosolic fractions, 20 millions of HAP1 cells per condition were washed twice with cold PBS, and collected into 50 ml falcon tube by centrifugation for 5 minutes at 280 g and 4° C. Cell lysis was performed on ice in the dark by incubating cell pellets with 1:5 hypotonic lysis buffer for 10 minutes. Nuclei were collected by centrifugation for 5 minutes at 420 g and 4° C. Supernatants (cytosolic fractions) were also collected. Both fractions were immediately snap frozen. For nucleus samples, 10 μL of ISTD mixture was added to nucleus pellet in 1.5 mL Eppendorf tube followed by addition of 145 μL of ice-cold extraction solvent (10 mg/mL ascorbic acid solution in 80% methanol, 20% water, v/v). The samples were vortexed for 10 seconds, afterwards incubated on ice for 3 min and vortexed again for 10 seconds. After centrifugation (14000 rpm, 10 min, 4° C.), the supernatant was collected into HPLC vials. […] An Acquity UHPLC system (Waters) coupled with Xevo TQ-MS (Waters) triple quadrupole mass spectrometer was used for quantitative analysis of metabolites. […] Quantification of all metabolites was performed using MassLynx V4.1 software from Waters. The seven-point linear calibration curves with internal standardization and 1/× weighing was constructed for the quantification.

Compound | RFP expression detected by live cell imaging (BRD4; REDS1 cells, 1 μM, 24 hours (FIG. 7B)) | expression of the reporter gene RFP in REDS detected by FACS (BRD4; REDS clones, 0.5 μM (S)-JQ1 (FIG. 6A)) | diploidization of WT-KBM7 (cell cycle profile) (WT-KBM7 cells) | effect on BRD4-MTHFD1 interaction in MTHFD1 pull-down (BRD4-MTHFD1 interaction) | sensitivity of cell lines to single treatment (dose response curves) [1] | sensitivity to (S)-JQ1 after shRNA for MTHFD1 (A549 cells) | tumor growth (A549 xenograft) | Redness after MTX treatment (BRD4; REDS reporter cells, three days of MTX (FIG. 13C)) | BRD4 levels on chromatin after MTX (chromatin-bound BRD4) | MTHFD1 (or SHMT1) nuclear localization [2] | changes in the nuclear folate pool (nuclear folate pool)
Cc1sc2c(c1C)C(c1ccc(Cl)cc1)=N[C@@H](CC(=O)OC(C)(C)C)c1nnc(C)n1-2 [(S)-JQ1] | robustly expressed RFP | rapid and consistent expression of the reporter gene red fluorescent protein (RFP) | induced WT-KBM7 diploidization | unaffected | low sensitivity | increased sensitivity | not impaired | – | – | – | –
CN(Cc1cnc2nc(N)nc(N)c2n1)c1ccc(C(=O)N[C@@H](CCC(=O)O)C(=O)O)cc1 [MTX, methotrexate] | – | – | – | unaffected | moderate to low sensitivity | – | not impaired | only weakly increased | did not affect BRD4 levels | not impairing MTHFD1 (or SHMT1) nuclear localization | highly correlated characteristic changes specifically in the nuclear folate pool
